{"source": "patent US11458094B2", "about": "“Compositions and methods for treating pulmonary edema or lung inflammation” (priority 2018, dated 2022)", "key": {"[1]": {"assay": "Toxicity phase: intratracheal instillation once daily for five consecutive days (GLP safety study)", "format": "in vivo, Sprague-Dawley rats", "method": "Safety studies are described in Example 3, below. In a safety study conducted in compliance with Good Laboratory Practices (GLPs), 0.3 mL (300 μl) was administered to rats weighing 250-350 grams via intratracheal instillation daily for five consecutive days. […] The calculated dose based on lung weight was about 1.57 μg/g wet lung weight.\nThis study was conducted using both male and female Sprague-Dawley rats (Envigo, Huntingdon, United Kingdom). Evaluation of the safety of the tracheal route of instillation for liothyronine sodium injection in human clinical trials can be accomplished in this species at appropriate dose levels. Furthermore, responses to thyroid hormone in rats are similar to responses in humans, and the choice of the rat model is based in large part on pharmacologic data from studies of thyroid hormone and associated receptors and physiological responses in rat lung. The University of Minnesota is accredited by the Association for the Assessment and Accreditation of Laboratory Animal Care, International (AAALAC) and registered with the United States Department of Agriculture to conduct research in laboratory animals. Animal studies conformed to NIH guidelines (Guide for the Care and Use of Laboratory Animals. NIH publication No. 86-23. Revised 1985). The protocol was reviewed and approved, as applicable, by the Institutional Animal Care and Use Committee (IACUC) at the University of Minnesota for compliance with regulations prior to study initiation or implementation of amended activities.\nSixty animals (plus two spare animals/sex/group) were anesthetized and dosed via intratracheal instillation of test or control materials for five consecutive days. On the day after the last dose a terminal blood collection was performed for clinical pathology, after which animals were euthanized and a gross examination of all organs was performed by a board certified veterinary pathologist. Select tissues were collected for histopathology. […] Terminal blood collection was performed at two designated time points per animal up to 24 hours after administration for toxicokinetic evaluation. TK animals were euthanized without further evaluation after the final blood collection. All animals were acclimated for a minimum of seven days prior to the dosing procedure. Animals underwent baseline observations and examinations prior to the initiation of the study, and clinical observations and body weight monitoring were performed throughout the in-life portion of the study. All animals received the same dose volume (0.3 mL) of either test or control materials. This maximum feasible dose (MFD) is constrained by the maximum volume that can be safely and reproducibly (over five days) instilled into lungs of rats weighing 250 g to 350 g, which was determined in preliminary toxicology studies to be 0.3 mL. Actual doses delivered are reported as both μg/kg body weight and μg/gm wet lung weight. The toxicity phase animals were 72-135 days of age at the time of initial dosing. Males weighed between 256.52 g and 307.50 g with a mean±standard deviation of 286.74±11.77 g, and females weighed between 250.46 g and 299.01 g with a mean±standard deviation of 260.64±10.34 g. The TK phase animals were 68-144 days of age at the time of initial dosing. Males weighed between 261.23 g and 316.19 g; females weighed between 250.06 g and 280.32 g.\nTest and control materials were drawn into dosing syringes using aseptic technique. Using a 18G needle, 0.5 mL of air was drawn into a 1 cc syringe followed by 0.3 mL (300 μL) of the solutions. Animals were anesthetized with a combination of ketamine, 40 mg/kg to 200 mg/kg, and xylazine, 1 mg/kg to 7 mg/kg intraperitoneally (IP), to effect. The dose was adjusted daily, as needed, based on individual animal response and recovery. Depth of anesthesia was evaluated by toe pinch, and eye lubricant was applied to the eyes. […]"}, "[2]": {"assay": "Preliminary dose-finding studies, 3.0 μg neutral pH T3 intravenous vs intratracheal", "format": "in vivo, rats"}, "Nrf2": {"test_system": "Nrf2", "assay": "Western blot of Nrf2 (total cellular and nuclear) in RLE-6TN cells under hyperoxia", "format": "cell-based, rat", "conditions": "24 hours hyperoxia, T3 10^−6 M", "source_text": "FIG. 9. […] The cells were then collected for Western Blotting analysis. (A) Cellular total protein of Nrf2. (B) Nuclear Nrf2.\nFIG. 12. T3-induced increase in Nrf2 and HO-1 protein via PI3K in hyperoxia. (A) Western Blot and densitometry data for total Nrf2. (B) Western Blot and densitometry data for cytoplasmic Nrf2. (C) Western Blot and densitometry data for nuclear Nrf2.\nNuclei were extracted with NE-PER nuclear and cytoplasmic extraction reagents kit (Thermo Fisher Scientific, Inc., Waltham, Mass.) following the manufacturer's instruction.\n(§1) The cells were lysed in lysis buffer containing 20 mM Tris·HCl (pH 7.5), 150 mM NaCl, 1 mM EDTA, 1 mM EGTA, 1% (vol/vol) Triton X-100 with protease inhibitors (1 mM PMSF, 2 μg/ml pepstatin, and 10 μg/ml each of aprotinin and leupeptin), and phosphatase inhibitors (2.5 mM sodium pyrophosphate, 1 mM β-glycerophosphate, and 1 mM Na3VO4). The lysate was drawn 10 times through a 25-gauge needle on ice for further lysis and then was centrifuged at 13,000 rpm for 15 minutes at 4° C. The supernatant was collected, and the protein concentrations were determined by use of the BCA protein assay kit (Sigma-Aldrich, St. Louis, Mo.). Immediately after this step, equal amounts of protein were subjected to Western blotting analysis."}, "HO-1": {"test_system": "HO-1", "assay": "Western blot of HO-1 in RLE-6TN cells under hyperoxia", "format": "cell-based, rat", "conditions": "T3 10^−6M", "method": "(§2) FIG. 10. HO-1 Upregulation is required for T3-increased RLE-6TN cell survival in hyperoxia. […] The cells were then collected for Western Blot analysis. (B) The cells were incubated in 21% O2 and 5% CO2 for 72 hours in the present of HO-1 inhibitor Tin Protoporphyrin IX(10^-6M) tinT3 (10^−6M). […] Cell viability is assessed with trypan blue. The number of viable cells under specific conditions is presented as a percentage of the cell number related to hyperoxia alone. Data are mean±s.d. of three independent experiments with *=P<0.05; **=P<0.01.\nas §1"}, "Akt": {"test_system": "Akt", "assay": "Akt phosphorylation (Ser473) in RLE-6TN cells under hyperoxia", "format": "cell-based, rat", "conditions": "hyperoxia 24 hours, T3 added for 20 minutes, vs room air control and hyperoxia alone", "method": "as §1"}, "[3]": {"test_system": "hyperoxia-induced lung injury", "assay": "Hyperoxia-induced lung injury in rats: bronchoalveolar lavage protein and cell number", "format": "in vivo, Sprague Dawley rats", "conditions": "ip T3", "source_text": "(§3) All experimental protocols for animal treatments were approved by the University of Minnesota Institutional Animal Care and Use Committee. […] The room-air control rats were kept in the University animal housing facility. At the end of hyperoxic exposure, rats were sacrificed by intraperitoneal pentobarbital injection, and the lungs were harvested; the right lobes were allocated for histopathology, measurement of lung tissue myeloperoxidase (MPO) activity and wet-to-dry weight ratio. The left lobes underwent bronchoalveolar lavage (BAL) to determine BAL protein concentrations and differential cell counts.\nBronchoalveolar lavage (BAL) of the left lung was performed using a modification of a method previously described (Pace et al., Exp Lung Res 35:380-398, 2009). Briefly, 4 mls of ice-chilled 1× PBS (pH 7.4) were instilled into the left lung, withdrawn, and re-instilled two subsequent times prior to analysis of the lavage fluid. The retrieved BAL fluid was centrifuged at 1500 rpm for 10 minutes to remove cells and debris. The cell pellet was resuspended in 1 ml of 1× PBS (pH 7.4) and total cell number was counted using a hemocytometer. BAL cytospin preparations were stained using the Hema3 stain kit (Thermo Fisher Scientific, Inc., Waltham, Mass.) to identify the nucleated cells. The protein concentration was determined on the supernatants of BAL fluid using a standard BCA assay (Sigma-Aldrich, St. Louis, Mo.)."}, "[4]": {"test_system": "myeloperoxidase (MPO) activity in lung tissue", "assay": "Hyperoxia-induced lung injury in rats: lung myeloperoxidase (MPO) assay", "format": "in vivo, Sprague Dawley rats", "conditions": "60 hours hyperoxia, ip T3", "source_text": "as §3\nTo quantify the neutrophil activity in the lung, MPO activity was assayed as previously described (Abraham et al., J Immunol 165:2950-2954, 2000). Lung tissues without prior lavage were frozen in liquid nitrogen, weighed, and stored at −86° C. The lungs were homogenized for 30 seconds in 1.5 ml 20 mM potassium phosphate, pH 7.4, and centrifuged at 4° C. for 30 minutes at 40,000×g. The pellet was resuspended in 1.5 ml 50 mM potassium phosphate, pH 6.0, containing 0.5% hexadecyltrimethylammonium bromide, sonicated for 90 seconds, incubated at 60° C. for two hours, and centrifuged at 14,000 rpm for 30 minutes at 4° C. The supernatant was assayed for peroxidase activity corrected to lung weight. MPO was expressed as activity per gram of lung tissue."}, "[5]": {"test_system": "hyperoxia-induced lung injury", "assay": "Hyperoxia-induced lung injury in rats: lung histology and MPO immunostaining", "format": "in vivo, Sprague Dawley rats", "method": "FIG. 17. […] Immunostaining was performed with primary: anti-MPO antibody. Black dots represent MPO-positive cells.\nFIG. 18. […] (A) Control: room air; (B) Hyperoxia; (C) Hyperoxia+T3.\nas §3\nLung tissue was removed and inflation fixed at 20 cm water pressure in 4% paraformaldehyde, paraffin embedded, cut as 5 micron sections and mounted onto poly-L-lysine slides. Sections were deparaffinized in xylene, rehydrated through a graded alcohol series in methanol, and placed in a 98° C. water bath for 30 minutes in citrate buffer (pH 6.0) for antigen retrieval. After quenching with 0.3% hydrogen peroxide in PBS, sections were incubated in normal serum for 30 minutes and for 15 minutes each with Avidin/Biotin Blocking Kit (Vector Laboratories, Inc., Burlingame, Calif.). […]"}, "[6]": {"test_system": "rat lung mucosa and airspaces", "conditions": "in vivo", "quoted_text": "(§4) Therefore, the liothyronine sodium and the vehicle were adjusted to neutral pH (6.0-8.0) with sterile 1.0 N HCl (Sigma-Aldrich, St. Louis, Mo.) added aseptically in a biosafety cabinet prior to intratracheal instillation into animals. Using aseptic technique, vials of liothyronine sodium were opened and the entire contents were transferred into sterile 1.5 mL Eppendorf tubes. 80-90 μL of 1.0 N HCl was added to the tube and gently vortexed, and the pH was measured using pH test strips (pH 4.5 to 10.0, Ricca Chemical Co., Arlington, Tex.). Additional HCl was titrated in gradually, as needed, until the pH was in the desired range. […] This solution was stored at 4° C. and used for up to 26 hours after pH adjustment procedure. […] The vehicle was also adjusted to neutral pH (6.0-8.0) with 1.0 N HCl as described above. Using aseptic technique the vehicle was filter sterilized and aliquoted into 21 sterile disposable tubes (5 mL each) and stored at 4° C., and a new tube was opened for each day of use. Normal Saline (0.9% Sodium Chloride Injection USP, B. Braun Medical, Inc., Bethlehem, Pa.), was stored at room temperature. A new package was opened for each day of use."}, "[7]": {"conditions": "single oral dose of 50 micrograms; cited from earlier work"}, "[8]": {"test_system": "rat lung mucosa and airspaces", "assay": "Preliminary studies: intratracheal instillation of liothyronine sodium without pH adjustment", "conditions": "rats, pH of >10.0 as supplied commercially", "quoted_text": "as §4"}, "RLE-6TN cells": {"test_system": "RLE-6TN cells", "assay": "RLE-6TN cell survival and recovery under hyperoxia, viable cells by trypan blue exclusion", "format": "cell-based, rat", "method": "FIG. 7. […] The cells were cultured in DMEM/F12 with 10% FBS in 21% O2 and 5% CO2 overnight. […] The viable cells are counted immediately after 72-hour hyperoxia exposure. Cell viability is assessed with trypan blue. The amount of viable cells under specific conditions is presented as a percentage of the cell number from hyperoxia alone. Data are mean±s.d. of four independent experiments with *=P<0.05; **=P<0.01.\nFIG. 8. […] In both (A) and (B), the number of viable cells under specific conditions is presented as a percentage of the cell number related to hyperoxia alone in the same experiment. Data are mean±s.d. of four independent experiments with *=P<0.05; **=P<0.01.\nas §2\nFIG. 11. PI3K inhibitor wortmannin blocked T3-induced cell survival in hyperoxia. […] Cell viability is assessed with trypan blue. The number of viable cells under specific conditions is presented as a percentage of the cell number related to hyperoxia alone. Data are mean±s.d. of four independent experiments with *=P<0.05; **=P<0.01.\nAt the end of the hyperoxia exposure period, the viable cells were counted by trypan blue dye exclusion."}}, "data": [{"smiles": "N[C@@H](Cc1cc(I)c(Oc2ccc(O)c(I)c2)c(I)c1)C(=O)O", "note": "[T3, triiodothyronine]", "values": [{"measurement": "body weight at terminal euthanasia vs pre-dose", "setting": "[1]; T3 females, toxicity phase", "result": "weighed slightly less than their pre-dose weight"}, {"measurement": "animals that died after dose administration", "setting": "[1]; T3 test group, toxicity phase, judged not test article related", "result": "two"}, {"measurement": "clinical observations", "setting": "[1]; during the course of the study", "result": "No adverse T3 related clinical observations"}, {"measurement": "regain of body weight", "setting": "[1]; female rats, toxicity phase, vs males or control groups", "result": "did not regain body weight at the same rate"}, {"measurement": "hematology parameters", "setting": "[1]; male rats", "result": "no statistical or clinically significant changes"}, {"measurement": "treatment-related macroscopic or microscopic findings in end organs", "setting": "[1]; toxicity phase rats", "result": "no macroscopic or microscopic findings"}, {"measurement": "organ weight of the lungs", "setting": "[1]; toxicity phase rats, five days intratracheal", "result": "no differences"}, {"measurement": "acute effects on physiologic parameters (respiratory rate, O2 saturation, heart rate)", "setting": "[2]; five days of intratracheal delivery of 3.0 μg neutral pH T3", "result": "no acute effects"}, {"measurement": "acute effects on physiologic parameters (respiratory rate, O2 saturation, heart rate)", "setting": "[2]; single intravenous delivery of 3.0 μg neutral pH T3", "result": "no acute effects"}, {"measurement": "nuclear Nrf-2 protein expression", "setting": "Nrf2", "result": "significantly increased"}, {"measurement": "total cellular Nrf-2 protein expression", "setting": "Nrf2", "result": "significantly increased"}, {"measurement": "total cellular protein of HO-1", "setting": "HO-1", "result": "significantly enhanced"}, {"measurement": "phosphorylation of Akt at Ser473", "setting": "Akt", "result": "augmented"}, {"measurement": "hyperoxic increase in BALF protein concentration", "setting": "[3]; 48 hour hyperoxia", "result": "attenuated significantly"}, {"measurement": "BALF cell numbers vs hyperoxia alone", "setting": "[3]; 48 hours hyperoxia", "result": "significantly reduced"}, {"measurement": "hyperoxic increase in BALF protein concentration", "setting": "[3]; 60 hour hyperoxia", "result": "attenuated significantly"}, {"measurement": "BALF cell numbers vs hyperoxia alone", "setting": "[3]; 60 hours hyperoxia", "result": "significantly reduced"}, {"measurement": "hyperoxia-induced lung MPO activity", "setting": "[4]", "result": "significantly reduced"}, {"measurement": "MPO-positive cells in the lungs vs hyperoxia without T3", "setting": "[5]; 95% oxygen 60 hours, T3-injected", "result": "fewer MPO-positive cells"}, {"measurement": "lung morphology (histopathology)", "setting": "[5]; 60 hours hyperoxia, systemic T3 supplementation", "result": "virtually normal lung morphology"}, {"measurement": "toxicity to rat lung mucosa and airspaces", "setting": "[6]", "result": "extremely toxic"}, {"measurement": "mean half-life", "setting": "[7]", "result": 22.5, "unit": "h"}, {"measurement": "tolerance of intratracheal instillation", "setting": "[8]", "result": "do not tolerate"}]}, {"smiles": "C=Cc1c2[n-]c(c1C)/C=c1\\[n-]/c(c(C)c1C=C)=C\\c1[n-]c(c(CCC(=O)O)c1C)C=c1[n-]/c(c(C)c1CCC(=O)O)=C\\2.[Sn+4]", "note": "[Tin protoporphyrin, Tin Protoporphyrin IX]", "values": [{"measurement": "AT2 cell number in room air", "setting": "RLE-6TN cells; 21% O2 72 hours, 10^-6M", "result": "no effect"}, {"measurement": "effect on T3-caused increase in cell survival in hyperoxia", "setting": "RLE-6TN cells; 90% O2 72 hours, with T3 10^−6M, inhibitor 10^-6M", "result": "blocked"}]}, {"smiles": "NC(Cc1ccc(Oc2cc(I)c(O)c(I)c2)c(I)c1)C(=O)O", "note": "(centres unmarked) [rT3]", "values": [{"measurement": "cell survival under hyperoxia", "setting": "RLE-6TN cells; 90% oxygen 72 hours, 10^−6M", "result": "no role in cell survival"}]}]}
